Drawing on ChEMBL document CHEMBL4406896, “Pyrenocine A induces monopolar spindle formation and suppresses proliferation of cancer cells” (Bioorg Med Chem, 2019), this text covers IC50 and Activity for seven molecules.

Series [1] concerns HeLa. The series is described as follows: Antiproliferative activity against human HeLa cells incubated for 48 hrs by WST8 assay. The series is classed as functional, cell-based.
In the next series the test system is HCT-116. The series is described as follows: Antiproliferative activity against human HCT116 cells incubated for 48 hrs by WST8 assay. The series is classed as functional, cell-based. To be noted: HCT-116, 48 h. On the technique in general: Formazan colour is commonly taken as a measure of viable cells.
In series [2] the test system is HeLa. The series is described as follows: Induction of cell cycle arrest in S phase synchronized human HeLa cells stably expressing GFP-HistoneH1 fusion protein assessed as increase in formation of ring shaped chromosomes incubated for 4 hrs by inverted fluorescence microscopic method. The format is functional, cell-based.
The test system of series [3] is HeLa. The series is described as follows: Induction of cell cycle arrest in S phase synchronized human HeLa cells stably expressing GFP-HistoneH1 fusion protein assessed as increase in total mitotic cells at 1 uM incubated for 6 hrs by inverted fluorescence microscopic method relative to control. The series is classed as functional.
Series [4] relates to HeLa. The series is described as follows: Induction of cell cycle arrest in S phase synchronized human HeLa cells stably expressing GFP-HistoneH1 fusion protein assessed as increase in total mitotic cells at 5 uM incubated for 6 hrs by inverted fluorescence microscopic method relative to control. The series is classed as functional.
For series [5], the target named is T1, Kinesin-like protein KIF11 (Homo sapiens) (UniProt P52732).
T1 sequence (whole entry): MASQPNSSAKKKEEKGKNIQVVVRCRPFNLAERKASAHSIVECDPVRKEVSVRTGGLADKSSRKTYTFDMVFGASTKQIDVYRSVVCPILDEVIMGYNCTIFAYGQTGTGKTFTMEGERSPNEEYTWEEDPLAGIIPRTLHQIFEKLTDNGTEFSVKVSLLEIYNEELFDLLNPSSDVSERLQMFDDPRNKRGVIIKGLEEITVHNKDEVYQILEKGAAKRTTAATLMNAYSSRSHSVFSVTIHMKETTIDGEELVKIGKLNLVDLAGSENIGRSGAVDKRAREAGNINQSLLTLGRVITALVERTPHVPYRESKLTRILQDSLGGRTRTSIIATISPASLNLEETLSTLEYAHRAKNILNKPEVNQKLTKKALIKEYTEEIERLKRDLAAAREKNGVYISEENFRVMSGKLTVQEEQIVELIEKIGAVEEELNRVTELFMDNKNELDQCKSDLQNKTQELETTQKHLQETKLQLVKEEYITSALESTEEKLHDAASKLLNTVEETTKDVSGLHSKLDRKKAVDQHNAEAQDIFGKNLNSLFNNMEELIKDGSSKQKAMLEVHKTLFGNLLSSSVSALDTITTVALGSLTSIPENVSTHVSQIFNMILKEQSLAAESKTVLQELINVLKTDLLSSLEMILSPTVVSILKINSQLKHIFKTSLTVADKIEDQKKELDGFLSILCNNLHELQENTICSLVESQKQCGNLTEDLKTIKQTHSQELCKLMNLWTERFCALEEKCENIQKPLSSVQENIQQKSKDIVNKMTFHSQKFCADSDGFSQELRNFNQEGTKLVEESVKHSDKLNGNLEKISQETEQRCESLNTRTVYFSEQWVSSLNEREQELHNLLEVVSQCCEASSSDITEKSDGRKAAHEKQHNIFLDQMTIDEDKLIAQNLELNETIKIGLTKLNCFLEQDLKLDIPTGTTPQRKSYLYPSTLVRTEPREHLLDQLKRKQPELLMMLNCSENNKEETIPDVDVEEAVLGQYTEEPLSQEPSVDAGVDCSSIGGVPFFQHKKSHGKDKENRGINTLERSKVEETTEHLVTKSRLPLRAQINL
The series is described as follows: Inhibition of human Eg5 motor domain (1 to 368 residues) expressed in Escherichia coli assessed as reduction in microtubule-stimulated ATPase activity at 100 uM incubated with ATP for 6 mins by malachite green method.

Series [6] has as its system HeLa. The series is described as follows: Induction of cell cycle arrest in S phase synchronized human HeLa cells stably expressing GFP-HistoneH1 fusion protein assessed as chromosomes division at 5 uM incubated for 3 hrs by inverted fluorescence microscopic method. The series is classed as functional, cell-based.
Series [7] deals with HeLa. The series is described as follows: Induction of cell cycle arrest in S phase synchronized human HeLa cells stably expressing GFP-HistoneH1 fusion protein assessed as formation of ring shaped chromosomes at 5 uM incubated for 4 hrs by inverted fluorescence microscopic method. The format is functional, cell-based.
Another series has as its system A549. The series is described as follows: Antiproliferative activity against human A549 cells incubated for 48 hrs by WST8 assay. The series is classed as functional, cell-based. The settings on record: A549, 48 h.
Series [8] concerns HeLa. The series is described as follows: Induction of cell cycle arrest in human HeLa cells assessed as mono-polar spindles formation surrounded by ring shaped chromosomes in mitotic cells at 5 uM incubated for 6 hrs by Hoechst 33342 staining based confocal microscopic method. The series is classed as functional.
Another series relates to Huh-7. The series is described as follows: Antiproliferative activity against human HuH7 cells incubated for 48 hrs by WST8 assay. The series is classed as functional, cell-based. The settings on record: Huh-7, 48 h.
The test system of series [9] is HeLa. The series is described as follows: Induction of cell cycle arrest in S phase synchronized human HeLa cells stably expressing GFP-HistoneH1 fusion protein assessed as chromosomes alignment at 5 uM incubated for 3 hrs by inverted fluorescence microscopic method. The series is classed as functional, cell-based.
In series [10] the test system is HeLa. The series is described as follows: Induction of cell cycle arrest in S phase synchronized human HeLa cells stably expressing GFP-HistoneH1 fusion protein assessed as increase in total mitotic cells at 10 uM incubated for 6 hrs by inverted fluorescence microscopic method relative to control. The format is functional.
Series [11] deals with HeLa. The series is described as follows: Cytotoxicity against human HeLa cells assessed as cell death at 5 to […] incubated for 48 hrs by LDH assay relative to control. The series is classed as cell-based.
In series [12] the test system is HeLa. The series is described as follows: Induction of cell cycle arrest in human HeLa cells assessed as mono-polar spindles formation surrounded by ring shaped chromosomes in mitotic cells at 3 uM incubated for 6 hrs by Hoechst 33342 staining based confocal microscopic method. The series is classed as functional.

Each structure is given as a SMILES string. pIC50: −log10 of the molar value. Activity calls are given as the source filed them. The rule behind the calls is not given here. Where only a bound is given, the exact number is not on record here.

Turning to `C/C=C/C(=O)c1c(OC)cc(=O)oc1C`, the pIC50 in the series on HeLa [1] was 5.03; in the series on HCT-116, 5.59; in the series with A549, 4.89; in the series with Huh-7 it was 5.07. The Activity result in the series on HeLa [2] was “Dose-dependent effect”; in the series with HeLa [3] it was 2%; in the series with HeLa [4], 7%; with HeLa [10], 14%; in the series on HeLa [11] it was 0 to 6%. In addition, the outcome (in series [5]; in the series on HeLa [6]; with HeLa [9]) was inactive. The outcome with HeLa [7] and in the series with HeLa [8] was Active.

For `C#CCOCC/C=C/C(=O)c1c(OC)cc(=O)oc1C`, in the series with HeLa [1], the pIC50 is 5.64. Also, the result in the series with HeLa [2] was Active.

Turning to `COc1cc(=O)oc(C)c1C(=O)CC(C)O` (centres undefined), in the series on HeLa [1], the pIC50 was 4.65.

Molecule `CCCC(=O)c1c(OC)cc(=O)oc1C` showed a pIC50 with HeLa [1] of less than 4.00.

As to `COc1cccc2c1C(=O)c1c(O)c3c(c(O)c1C2=O)C[C@@](O)(C(=O)CO)C[C@@H]3O[C@H]1C[C@H](N)[C@H](O)[C@H](C)O1` [DOXORUBICIN], the pIC50 was 6.40 in the series on HeLa [1], 6.60 in the series with HCT-116, 6.62 with A549 and 6.66 in the series with Huh-7.

For `N[C@@H](CSC(c1ccccc1)(c1ccccc1)c1ccccc1)C(=O)O`, the result in the series with HeLa [12] was Active.

In the series with HeLa [1], `C/C=C/Cc1c(O)cc(=O)oc1C` showed a pIC50 of less than 4.00.

The term pIC50 denotes −log10 of the IC50, conventionally taken in molar units. Read a low pIC50 as a large IC50.
